Reference: the kinase profiling compilation of Christmann-Franck et al. (2016)

Assays:
Assay in all cases: KINOMEscan competition binding
Details in all cases: compound 10.0 µM
[1] = molecular target: AKT3 (human) (UniProt Q9Y243)
[2] = molecular target: BRAF (human) (UniProt P15056)
[3] = molecular target: BRSK2 (human) (UniProt Q8IWQ3)
[4] = molecular target: CAMK1G (human) (UniProt Q96NX5)
[5] = molecular target: CAMK2A (human) (UniProt Q9UQM7)
[6] = molecular target: CAMK2G (human) (UniProt Q13555)
[7] = molecular target: CAMKK2 (human) (UniProt Q96RR4)
[8] = molecular target: CDK15 (human) (UniProt Q96Q40)
[9] = molecular target: CDK7 (human) (UniProt P50613)
[10] = molecular target: CLK2 (human) (UniProt P49760)
[11] = molecular target: DCLK2 (human) (UniProt Q8N568)
[12] = molecular target: EIF2AK2 (human) (UniProt P19525)
[13] = molecular target: EPHA4 (human) (UniProt P54764)
[14] = molecular target: EPHA7 (human) (UniProt Q15375)
[15] = molecular target: EPHB3 (human) (UniProt P54753)
[16] = system: FLT3 (human), P36888 [D835H]
[17] = system: FLT3 (human), P36888 [N841I]
[18] = molecular target: GRK1 (human) (UniProt Q15835)
[19] = molecular target: GRK4 (human) (UniProt P32298)
[20] = molecular target: GSK3A (human) (UniProt P49840)
[21] = molecular target: HCK (human) (UniProt P08631)
[22] = molecular target: HIPK4 (human) (UniProt Q8NE63)
[23] = system: KIT (human), P10721 [V559D/T670I]
[24] = molecular target: MAP3K7 (human) (UniProt O43318)
[25] = molecular target: MAPK4 (human) (UniProt P31152)
[26] = molecular target: MARK1 (human) (UniProt Q9P0L2)
[27] = molecular target: NEK6 (human) (UniProt Q9HC98)
[28] = molecular target: NEK7 (human) (UniProt Q8TDX7)
[29] = molecular target: PDPK1 (human) (UniProt O15530)
[30] = system: PIK3CA (human), P42336 [E545A]
[31] = molecular target: PKN1 (human) (UniProt Q16512)
[32] = molecular target: PRKCH (human) (UniProt P24723)
[33] = molecular target: PRKX (human) (UniProt P51817)
[34] = molecular target: RPS6KA5 KD2 (human) (UniProt O75582)
[35] = molecular target: SBK1 (human) (UniProt Q52WX2)
[36] = molecular target: SNRK (human) (UniProt Q9NRH2)
[37] = molecular target: STK32C (human) (UniProt Q86UX6)
[38] = molecular target: TBK1 (human) (UniProt Q9UHD2)
[39] = molecular target: TRPM6 (human) (UniProt Q9BX84)
[40] = molecular target: ULK2 (human) (UniProt Q8IYT8)
[41] = molecular target: YES1 (human) (UniProt P07947)

PDPK1 (human), sequence (O15530 whole entry, looked up): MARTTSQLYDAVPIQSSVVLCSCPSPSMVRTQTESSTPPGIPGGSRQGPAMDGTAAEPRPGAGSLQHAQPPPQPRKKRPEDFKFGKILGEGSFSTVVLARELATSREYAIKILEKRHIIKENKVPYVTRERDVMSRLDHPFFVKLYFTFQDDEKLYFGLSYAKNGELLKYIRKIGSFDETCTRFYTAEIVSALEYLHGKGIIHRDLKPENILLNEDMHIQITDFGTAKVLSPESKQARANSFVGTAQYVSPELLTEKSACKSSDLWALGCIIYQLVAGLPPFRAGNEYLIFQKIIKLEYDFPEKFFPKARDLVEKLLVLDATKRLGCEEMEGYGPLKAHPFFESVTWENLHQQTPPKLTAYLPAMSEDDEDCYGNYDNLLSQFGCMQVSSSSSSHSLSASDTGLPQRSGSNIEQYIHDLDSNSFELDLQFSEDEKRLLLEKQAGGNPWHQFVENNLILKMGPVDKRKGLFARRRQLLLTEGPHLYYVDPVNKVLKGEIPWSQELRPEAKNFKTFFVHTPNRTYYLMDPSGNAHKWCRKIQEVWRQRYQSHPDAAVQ
SNRK (human), sequence (Q9NRH2 whole entry, looked up): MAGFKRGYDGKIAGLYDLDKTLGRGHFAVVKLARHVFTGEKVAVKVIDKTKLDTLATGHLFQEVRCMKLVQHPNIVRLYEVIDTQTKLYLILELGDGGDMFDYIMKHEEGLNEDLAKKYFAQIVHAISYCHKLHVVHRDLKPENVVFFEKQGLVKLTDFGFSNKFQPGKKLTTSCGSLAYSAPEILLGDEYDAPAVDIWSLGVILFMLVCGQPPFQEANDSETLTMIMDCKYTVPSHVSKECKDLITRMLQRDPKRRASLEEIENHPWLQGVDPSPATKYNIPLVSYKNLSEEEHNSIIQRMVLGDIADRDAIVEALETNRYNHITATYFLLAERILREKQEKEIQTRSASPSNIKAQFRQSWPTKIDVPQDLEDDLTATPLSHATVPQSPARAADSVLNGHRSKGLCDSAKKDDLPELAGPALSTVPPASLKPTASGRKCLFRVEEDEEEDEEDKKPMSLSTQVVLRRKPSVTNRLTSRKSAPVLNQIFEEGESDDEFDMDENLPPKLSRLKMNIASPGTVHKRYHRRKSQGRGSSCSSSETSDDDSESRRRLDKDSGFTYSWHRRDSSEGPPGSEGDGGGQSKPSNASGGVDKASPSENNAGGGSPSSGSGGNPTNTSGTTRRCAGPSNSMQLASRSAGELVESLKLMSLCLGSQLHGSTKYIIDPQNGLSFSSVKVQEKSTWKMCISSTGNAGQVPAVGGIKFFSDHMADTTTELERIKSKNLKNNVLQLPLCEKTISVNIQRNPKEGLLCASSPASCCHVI
CAMK2A (human), sequence (Q9UQM7 whole entry, looked up): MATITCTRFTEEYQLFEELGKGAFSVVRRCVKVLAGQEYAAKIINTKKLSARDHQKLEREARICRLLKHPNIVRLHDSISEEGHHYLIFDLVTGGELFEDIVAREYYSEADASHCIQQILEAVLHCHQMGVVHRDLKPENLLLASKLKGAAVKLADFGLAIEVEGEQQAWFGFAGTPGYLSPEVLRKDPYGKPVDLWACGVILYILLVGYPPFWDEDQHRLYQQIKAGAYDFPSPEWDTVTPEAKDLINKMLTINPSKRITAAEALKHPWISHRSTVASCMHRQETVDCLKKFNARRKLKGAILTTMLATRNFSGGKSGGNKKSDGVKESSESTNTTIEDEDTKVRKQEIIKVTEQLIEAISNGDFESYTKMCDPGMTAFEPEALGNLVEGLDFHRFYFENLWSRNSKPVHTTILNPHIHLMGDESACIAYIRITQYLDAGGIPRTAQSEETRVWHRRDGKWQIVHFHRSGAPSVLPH
SBK1 (human), sequence (Q52WX2 whole entry, looked up): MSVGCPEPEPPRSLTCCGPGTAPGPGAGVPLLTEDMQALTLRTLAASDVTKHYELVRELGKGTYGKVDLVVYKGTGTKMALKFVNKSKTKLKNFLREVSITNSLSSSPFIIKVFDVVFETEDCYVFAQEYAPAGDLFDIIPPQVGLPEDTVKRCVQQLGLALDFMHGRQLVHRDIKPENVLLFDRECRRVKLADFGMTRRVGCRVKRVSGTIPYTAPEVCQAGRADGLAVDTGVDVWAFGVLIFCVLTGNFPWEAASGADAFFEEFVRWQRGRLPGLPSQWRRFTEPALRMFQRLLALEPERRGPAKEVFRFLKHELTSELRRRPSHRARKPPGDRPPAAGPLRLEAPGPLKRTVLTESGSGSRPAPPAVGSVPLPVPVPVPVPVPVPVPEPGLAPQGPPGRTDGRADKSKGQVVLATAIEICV
CAMKK2 (human), sequence (Q96RR4 whole entry, looked up): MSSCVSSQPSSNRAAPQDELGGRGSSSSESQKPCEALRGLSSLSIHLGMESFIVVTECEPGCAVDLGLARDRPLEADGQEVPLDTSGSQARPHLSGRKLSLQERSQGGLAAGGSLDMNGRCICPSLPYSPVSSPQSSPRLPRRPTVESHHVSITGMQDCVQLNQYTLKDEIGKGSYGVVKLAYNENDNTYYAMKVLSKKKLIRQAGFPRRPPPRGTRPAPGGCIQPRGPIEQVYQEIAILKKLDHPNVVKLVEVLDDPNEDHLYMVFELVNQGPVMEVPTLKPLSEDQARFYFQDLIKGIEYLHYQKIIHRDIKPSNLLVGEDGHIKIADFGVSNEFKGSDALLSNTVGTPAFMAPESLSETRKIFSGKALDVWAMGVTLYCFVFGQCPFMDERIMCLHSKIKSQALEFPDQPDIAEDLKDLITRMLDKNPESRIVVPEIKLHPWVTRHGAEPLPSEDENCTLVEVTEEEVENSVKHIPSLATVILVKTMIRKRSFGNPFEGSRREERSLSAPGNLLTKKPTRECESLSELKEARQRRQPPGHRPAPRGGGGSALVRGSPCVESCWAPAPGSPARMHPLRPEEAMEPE
GRK4 (human), sequence (P32298 whole entry, looked up): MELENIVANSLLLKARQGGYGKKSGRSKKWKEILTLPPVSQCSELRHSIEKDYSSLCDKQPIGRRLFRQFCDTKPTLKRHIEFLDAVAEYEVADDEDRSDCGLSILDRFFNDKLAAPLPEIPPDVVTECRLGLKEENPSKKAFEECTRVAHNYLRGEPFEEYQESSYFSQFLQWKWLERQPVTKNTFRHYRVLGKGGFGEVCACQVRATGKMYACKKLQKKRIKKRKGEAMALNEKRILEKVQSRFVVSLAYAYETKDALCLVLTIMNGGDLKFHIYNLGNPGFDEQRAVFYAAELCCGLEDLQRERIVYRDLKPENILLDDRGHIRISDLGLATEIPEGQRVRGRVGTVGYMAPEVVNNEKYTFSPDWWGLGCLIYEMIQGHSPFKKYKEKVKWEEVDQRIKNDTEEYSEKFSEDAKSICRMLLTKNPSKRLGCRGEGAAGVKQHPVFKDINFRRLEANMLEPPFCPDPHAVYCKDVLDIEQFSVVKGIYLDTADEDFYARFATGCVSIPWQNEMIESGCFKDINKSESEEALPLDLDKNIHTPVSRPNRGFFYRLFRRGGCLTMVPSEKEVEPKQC
DCLK2 (human), sequence (Q8N568 whole entry, looked up): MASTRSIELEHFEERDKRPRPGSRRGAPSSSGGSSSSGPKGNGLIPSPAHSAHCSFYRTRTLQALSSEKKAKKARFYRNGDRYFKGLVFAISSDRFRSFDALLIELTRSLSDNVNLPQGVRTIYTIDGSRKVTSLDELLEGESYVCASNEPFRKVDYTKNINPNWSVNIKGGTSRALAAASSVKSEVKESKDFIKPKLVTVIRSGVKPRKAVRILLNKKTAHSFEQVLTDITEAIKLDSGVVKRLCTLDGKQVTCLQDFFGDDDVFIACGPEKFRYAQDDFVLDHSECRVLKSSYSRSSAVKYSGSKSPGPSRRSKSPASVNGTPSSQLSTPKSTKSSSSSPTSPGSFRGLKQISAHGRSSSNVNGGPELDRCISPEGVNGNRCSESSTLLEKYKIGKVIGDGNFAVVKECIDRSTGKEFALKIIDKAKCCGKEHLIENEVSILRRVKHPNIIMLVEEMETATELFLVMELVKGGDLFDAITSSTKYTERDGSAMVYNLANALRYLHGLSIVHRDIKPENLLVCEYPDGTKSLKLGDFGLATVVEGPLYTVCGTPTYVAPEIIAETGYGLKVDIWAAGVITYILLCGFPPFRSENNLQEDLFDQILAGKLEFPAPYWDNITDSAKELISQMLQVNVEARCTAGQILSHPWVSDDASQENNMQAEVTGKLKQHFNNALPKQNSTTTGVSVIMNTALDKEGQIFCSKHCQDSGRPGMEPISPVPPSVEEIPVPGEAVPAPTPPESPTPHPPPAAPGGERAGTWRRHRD
HIPK4 (human), sequence (Q8NE63 whole entry, looked up): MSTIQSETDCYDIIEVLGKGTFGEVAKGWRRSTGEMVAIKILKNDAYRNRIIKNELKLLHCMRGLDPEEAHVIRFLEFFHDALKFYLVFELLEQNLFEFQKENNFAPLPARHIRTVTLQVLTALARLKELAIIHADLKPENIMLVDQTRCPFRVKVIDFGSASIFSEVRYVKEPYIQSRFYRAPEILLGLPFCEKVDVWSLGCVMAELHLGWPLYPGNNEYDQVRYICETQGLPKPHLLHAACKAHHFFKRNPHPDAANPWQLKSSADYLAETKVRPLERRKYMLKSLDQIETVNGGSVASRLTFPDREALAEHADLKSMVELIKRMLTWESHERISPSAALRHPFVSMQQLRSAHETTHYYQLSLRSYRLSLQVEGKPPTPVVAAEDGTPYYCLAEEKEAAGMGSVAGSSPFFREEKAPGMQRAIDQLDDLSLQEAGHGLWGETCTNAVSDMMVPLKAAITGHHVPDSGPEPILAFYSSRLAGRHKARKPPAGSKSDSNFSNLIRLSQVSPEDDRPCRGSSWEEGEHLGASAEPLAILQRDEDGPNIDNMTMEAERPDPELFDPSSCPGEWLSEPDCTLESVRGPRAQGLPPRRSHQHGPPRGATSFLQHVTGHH

Q: For `COc1ccc(-c2ccc3c(N4CCOCC4)nc(N4C[C@@H](C)O[C@@H](C)C4)nc3n2)cc1CO`, which kinase still bound, per cent of control [1] is on record?
A: Its kinase still bound, per cent of control is 97%.

Q: What about the kinase still bound, per cent of control [2] of the same compound?
A: The kinase still bound, per cent of control was 81%.

Q: What about the kinase still bound, per cent of control [3] of the same compound?
A: Its kinase still bound, per cent of control is 98%.

Q: And the kinase still bound, per cent of control [4]?
A: The kinase still bound, per cent of control was 94%.

Q: And the kinase still bound, per cent of control [5]?
A: The kinase still bound, per cent of control was 87%.

Q: And the kinase still bound, per cent of control [6]?
A: The kinase still bound, per cent of control was 87%.

Q: And the kinase still bound, per cent of control [7]?
A: Its kinase still bound, per cent of control is 64%.

Q: And the per cent of control [8]?
A: The per cent of control was 95%.

Q: What about the per cent of control [9] of the same compound?
A: Its per cent of control is 73%.

Q: What about the kinase still bound, per cent of control [10] of the same compound?
A: The kinase still bound, per cent of control was 64%.

Q: And the kinase still bound, per cent of control [11]?
A: Its kinase still bound, per cent of control is 100%.

Q: And the kinase still bound, per cent of control [12]?
A: Its kinase still bound, per cent of control is 100%.

Q: What about the kinase still bound, per cent of control [13] of the same compound?
A: The kinase still bound, per cent of control was 100%.

Q: And the kinase still bound, per cent of control [14]?
A: The kinase still bound, per cent of control was 86%.

Q: What about the kinase still bound, per cent of control [15] of the same compound?
A: The kinase still bound, per cent of control was 98%.

Q: What about the kinase still bound, per cent of control [16] of the same compound?
A: The kinase still bound, per cent of control was 100%.

Q: What about the kinase still bound, per cent of control [17] of the same compound?
A: The kinase still bound, per cent of control was 82%.

Q: What about the kinase still bound, per cent of control [18] of the same compound?
A: The kinase still bound, per cent of control was 98%.

Q: And the kinase still bound, per cent of control [19]?
A: The kinase still bound, per cent of control was 67%.

Q: And the kinase still bound, per cent of control [20]?
A: Its kinase still bound, per cent of control is 100%.

Q: And the kinase still bound, per cent of control [21]?
A: Its kinase still bound, per cent of control is 100%.

Q: And the kinase still bound, per cent of control [22]?
A: Its kinase still bound, per cent of control is 88%.

Q: And the kinase still bound, per cent of control [23]?
A: Its kinase still bound, per cent of control is 80%.

Q: What about the kinase still bound, per cent of control [24] of the same compound?
A: Its kinase still bound, per cent of control is 99%.

Q: And the kinase still bound, per cent of control [25]?
A: Its kinase still bound, per cent of control is 100%.

Q: What about the kinase still bound, per cent of control [26] of the same compound?
A: The kinase still bound, per cent of control was 100%.

Q: And the kinase still bound, per cent of control [27]?
A: Its kinase still bound, per cent of control is 96%.

Q: What about the kinase still bound, per cent of control [28] of the same compound?
A: The kinase still bound, per cent of control was 100%.

Q: And the kinase still bound, per cent of control [29]?
A: Its kinase still bound, per cent of control is 100%.

Q: What about the kinase still bound, per cent of control [30] of the same compound?
A: The kinase still bound, per cent of control was 2.4%.

Q: What about the kinase still bound, per cent of control [31] of the same compound?
A: The kinase still bound, per cent of control was 94%.

Q: What about the kinase still bound, per cent of control [32] of the same compound?
A: Its kinase still bound, per cent of control is 100%.

Q: What about the kinase still bound, per cent of control [33] of the same compound?
A: Its kinase still bound, per cent of control is 100%.

Q: And the kinase still bound, per cent of control [34]?
A: Its kinase still bound, per cent of control is 100%.

Q: What about the kinase still bound, per cent of control [35] of the same compound?
A: The kinase still bound, per cent of control was 100%.

Q: What about the kinase still bound, per cent of control [36] of the same compound?
A: The kinase still bound, per cent of control was 48%.

Q: And the kinase still bound, per cent of control [37]?
A: The kinase still bound, per cent of control was 87%.

Q: And the kinase still bound, per cent of control [38]?
A: Its kinase still bound, per cent of control is 100%.

Q: And the kinase still bound, per cent of control [39]?
A: Its kinase still bound, per cent of control is 50%.

Q: What about the kinase still bound, per cent of control [40] of the same compound?
A: The kinase still bound, per cent of control was 100%.

Q: What about the kinase still bound, per cent of control [41] of the same compound?
A: The kinase still bound, per cent of control was 100%.

Q: Which results are given for `COC(=O)Nc1ccc(-c2nc(N3CCOCC3)c3cnn(C4CCN(C(=O)OC)CC4)c3n2)cc1`?
A: kinase still bound, per cent of control [1]: 100%; kinase still bound, per cent of control [2]: 74%; kinase still bound, per cent of control [3]: 100%; kinase still bound, per cent of control [4]: 92%; kinase still bound, per cent of control [5]: 95%; kinase still bound, per cent of control [6]: 93%; kinase still bound, per cent of control [7]: 84%; per cent of control [8]: 100%; per cent of control [9]: 67%; kinase still bound, per cent of control [10]: 57%; kinase still bound, per cent of control [11]: 95%; kinase still bound, per cent of control [12]: 100%; kinase still bound, per cent of control [13]: 88%; kinase still bound, per cent of control [14]: 94%; kinase still bound, per cent of control [15]: 74%; kinase still bound, per cent of control [16]: 91%; kinase still bound, per cent of control [17]: 78%; kinase still bound, per cent of control [18]: 100%; kinase still bound, per cent of control [19]: 100%; kinase still bound, per cent of control [20]: 100%; kinase still bound, per cent of control [21]: 100%; kinase still bound, per cent of control [22]: 97%; kinase still bound, per cent of control [23]: 100%; kinase still bound, per cent of control [24]: 70%; kinase still bound, per cent of control [25]: 68%; kinase still bound, per cent of control [26]: 100%; kinase still bound, per cent of control [27]: 100%; kinase still bound, per cent of control [28]: 77%; kinase still bound, per cent of control [29]: 85%; kinase still bound, per cent of control [30]: 5.5%; kinase still bound, per cent of control [31]: 97%; kinase still bound, per cent of control [32]: 92%; kinase still bound, per cent of control [33]: 100%; kinase still bound, per cent of control [34]: 88%; kinase still bound, per cent of control [35]: 100%; kinase still bound, per cent of control [36]: 100%; kinase still bound, per cent of control [37]: 89%; kinase still bound, per cent of control [38]: 99%; kinase still bound, per cent of control [39]: 100%; kinase still bound, per cent of control [40]: 99%; kinase still bound, per cent of control [41]: 97%
